Results reported in article PMC10871122, “Synthesis and In Vitro Evaluation as Potential Anticancer and Antioxidant Agents of Diphenylamine-Pyrrolidin-2-one-Hydrazone Derivatives” (International Journal of Molecular Sciences, 2023).

What was measured:
[1] = test system: prostate carcinoma PPC-1 cell line; assay: MTT cell viability assay, prostate carcinoma PPC-1; type: cell-based, human; conditions: 100 µM, 72 h, MTT
Source text: (§1) The human malignant melanoma cell line IGR39, human triple-negative breast cancer MDA-MB-231, and human pancreatic carcinoma cell line Panc-1 were obtained from the American Type Culture Collection (ATCC, Manassas, VA, USA). Human foreskin fibroblasts (HF) CRL-4001 were originally obtained from ATCC and kindly provided by Prof. Helder Santos (University of Helsinki, Finland). Primary prostate carcinoma PPC-1 cell line was kindly provided by Prof. Tambet Teesalu (University of Tartu, Estonia). All cell lines were cultured in Dulbecco’s Modified Eagle’s GlutaMAX medium (Gibco (Carlsbad, CA, USA)), supplemented with 10,000 U/mL penicillin, 10 mg/mL streptomycin (Gibco), and 10% fetal bovine serum (Gibco). Cell cultures were grown at 37 °C in a humidified atmosphere containing 5% CO2. They were used until the passage of 20.
(§2) The effect of synthesized compounds on cell viability was studied using 3-(4,5-dimethylthiazol-2-yl)-2,5-diphenyltetrazolium bromide (MTT; Sigma-Aldrich Co., St Louis, MO, USA) assay, as described elsewhere. To summarize, the cells were seeded in triplicates in 96-well Corning plates (IGR39, MDA-MB-231, Panc-1 and PPC1: 4 × 10^3 cells/well; HF: 5 × 10^3 cells/well). The cells were treated with 100 μM of tested compounds after 24 h of incubation. After 72 h, the MTT reagent was added and the formazan crystals that had formed were dissolved in DMSO (Sigma-Aldrich Co., St. Louis, MO, USA). The absorbance was determined with a multidetection microplate reader at 570 and 630 nm.
(§3) The compound serial dilutions ranging from 50 µM to 1.56 µM were introduced to the cells. The Hill equation was used to calculate the EC50 value, or the concentration of a compound that results in a 50% reduction in the metabolic activity of cells.

[2] = test system: human foreskin fibroblasts (HF) CRL-4001; assay: MTT cell viability assay, fibroblasts; type: cell-based; conditions: 100 µM, 72 h
Source text: as §1, §2, §3

[3] = Ferric reducing antioxidant power (FRAP) assay; conditions: for reducing power activity compared to the control antioxidant: vs protocatechuic acid; for FRAP reducing power (Fe^2+): absorbance at 593 nm
Source text: The ferric reducing antioxidant power (FRAP) assay was used to evaluate the antioxidant potential of new compounds 2–17. Antioxidant assays are based on determining reduction power reactions (e.g., reduction Fe^3+ to Fe^2+) or scavenging free radicals (DPPH, ABTS). The FRAP assay is based on the method of single electron transfer (SET), measuring the reduction in the complex of ferric ions (Fe^3+)-ligand to the blue ferrous complex (Fe^2+). This method uses 2,4,6-tripyridyl-s-triazine (TPTZ) as the linking ligand to the iron. The antioxidant activity of the synthesized compounds was compared with that of the well-known antioxidant protocatechuic acid. […] PCA is a building block for pharmaceuticals and is widely used to produce many medicinal products such as veratridine (sodium channel inactivation inhibitor), erlotinib (antineoplastic), Picatin II (treatment of hepatitis B), itopride hydrochloride (gastrointestinal motility drug). PCA can also cause the induction of apoptosis of human leukemia cells. Moreover, the antioxidant activity of PCA is based on the reduction in free radical formation via the up-regulation of genes encoding enzymes with neutralizing activities.
Antioxidant activity was determined as an increase in absorbance at 593 nm, and the results were expressed as of Fe^2+ μmol/L and in relation to antioxidants, and protocatechuic acid, as positive control. The FRAP reagent contained 2.5 mL of 10 mM TPTZ solution in 40 mM HCl as well as 2.5 mL of FeCl3 (20 mM) and 25 mL of acetate buffer (0.3 M, pH = 3.6). Then, 100 μL of analyzed compounds (20 mM) were mixed with 3 mL of the FRAP reagent. The absorbance of the reaction mixture was measured spectrophotometrically at 593 nm using a UV-1280 UV-VIS spectrophotometer (Shimadzu Corporation, Kyoto, Japan). To compose the calibration curve, five concentrations of FeSO4·7H2O (5, 10, 15, 20, 25 μM) were used, and the absorbance was measured as a sample solution.

[4] = test system: human melanoma IGR39 cell line; assay: MTT cell viability assay, melanoma IGR39; type: cell-based; conditions: 100 µM, 72 h, MTT
Source text: as §1, §2, §3

[5] = test system: tested cancer cell lines (IGR39, PPC-1, MDA-MB-231, Panc-1); assay: MTT cell viability assay, statements on the tested cancer cell lines together; type: cell-based, human; conditions: for inhibition of cancer cell viability: 100 µM, 72 h, MTT; for selectivity against cancer cells: after determination of the dose-effect correlation
Protocol: as §2, §3

O=C(NN=Cc1ccc(Br)s1)C1CC(=O)N(c2ccc(Nc3ccccc3)cc2)C1 (stereo not shown) [Compound 12, N′-((5-bromothiophen-2-yl)methylene)-5-oxo-1-(4-(phenylamino)phenyl)pyrrolidine-3-carbohydrazide]
effect on cell viability compared among the cell lines [1]: most active against the prostate carcinoma cell line | effect on fibroblasts compared to cancer cell lines [2]: affected fibroblasts more than the tested cancer cell lines | reducing power activity compared to the control antioxidant [3]: higher than those of known antioxidants used as the controls | melting point: 240 to 241 °C

CCN(CC)c1ccc(C=NNC(=O)C2CC(=O)N(c3ccc(Nc4ccccc4)cc3)C2)c(O)c1 (stereo not shown) [Compound 8, N′-(4-(diethylamino)-2-hydroxybenzylidene)-5-oxo-1-(4-(phenylamino)phenyl)pyrrolidine-3-carbohydrazide]
effect on cell viability compared among the cell lines [4]: strongest effect on melanoma cells | effect on fibroblasts compared to cancer cell lines [2]: affected fibroblasts more than the tested cancer cell lines | FRAP reducing power (Fe^2+) [3]: 120.24 µmol/L | reducing power activity compared to the control antioxidant [3]: higher than those of known antioxidants used as the controls | melting point: 239 to 240 °C

O=C(NN=Cc1ccccc1[N+](=O)[O-])C1CC(=O)N(c2ccc(Nc3ccccc3)cc2)C1 (stereo not shown) [Compound 9, N′-(2-nitrobenzylidene)-5-oxo-1-(4-(phenylamino)phenyl)pyrrolidine-3-carbohydrazide]
effect on cell viability compared among the cell lines [4]: strongest effect on melanoma cells | FRAP reducing power (Fe^2+) [3]: 118.32 µmol/L | reducing power activity compared to the control antioxidant [3]: higher than those of known antioxidants used as the controls | inhibition of cancer cell viability [5]: less than 20% | melting point: 192 to 193 °C

O=C(O)c1ccc(O)c(O)c1 [protocatechuic acid, 3,4-dihydroxybenzoic acid, reference compound]
FRAP reducing power (Fe^2+) [3]: 109.05 µmol/L

CSc1ccc(C=NNC(=O)C2CC(=O)N(c3ccc(Nc4ccccc4)cc3)C2)cc1 (stereo not shown) [Compound 10, N′-(4-(methylthio)benzylidene)-5-oxo-1-(4-(phenylamino)phenyl)pyrrolidine-3-carbohydrazide]
effect on cell viability compared among the cell lines [4]: strongest effect on melanoma cells | effect on fibroblasts compared to cancer cell lines [2]: affected fibroblasts more than the tested cancer cell lines | melting point: 193 to 194 °C

O=C(NN=Cc1ccc(Br)cc1)C1CC(=O)N(c2ccc(Nc3ccccc3)cc2)C1 (stereo not shown) [Compound 3, N′-(4-bromobenzylidene)-5-oxo-1-(4-(phenylamino)phenyl)pyrrolidine-3-carbohydrazide]
effect on cell viability compared among the cell lines [4]: strongest effect on melanoma cells | FRAP reducing power (Fe^2+) [3]: 120.08 µmol/L | reducing power activity compared to the control antioxidant [3]: higher than those of known antioxidants used as the controls | selectivity against cancer cells [5]: nonselective against cancer cells | melting point: 198 to 199 °C

CC(=NNC(=O)C1CC(=O)N(c2ccc(Nc3ccccc3)cc2)C1)c1ccc(N)cc1 (stereo not shown) [Compound 16, N′-(1-(4-aminophenyl)ethylidene)-5-oxo-1-(4-(phenylamino)phenyl)pyrrolidine-3-carbohydrazide]
effect on cell viability compared among the cell lines [4]: strongest effect on melanoma cells | antioxidant activity (FRAP) relative to protocatechuic acid [3]: 1.2 times | FRAP reducing power (Fe^2+) [3]: 132.14 µmol/L | reducing power activity compared to the control antioxidant [3]: higher than those of known antioxidants used as the controls | inhibition of cancer cell viability [5]: less than 20% | melting point: 230 to 231 °C

O=C(NN=Cc1ccc(Cl)cc1)C1CC(=O)N(c2ccc(Nc3ccccc3)cc2)C1 (stereo not shown) [Compound 4, N′-(4-chlorobenzylidene)-5-oxo-1-(4-(phenylamino)phenyl)pyrrolidine-3-carbohydrazide]
effect on cell viability compared among the cell lines [1]: most active against the prostate carcinoma cell line | selectivity against cancer cells [5]: nonselective against cancer cells | melting point: 209 to 210 °C

CC(=NNC(=O)C1CC(=O)N(c2ccc(Nc3ccccc3)cc2)C1)c1ccccc1 (stereo not shown) [Compound 15, 5-Oxo-1-(4-(phenylamino)phenyl)-N′-(1-phenylethylidene)pyrrolidine-3-carbohydrazide]
effect on cell viability compared among the cell lines [4]: strongest effect on melanoma cells | FRAP reducing power (Fe^2+) [3]: 123.05 µmol/L | reducing power activity compared to the control antioxidant [3]: higher than those of known antioxidants used as the controls | inhibition of cancer cell viability [5]: less than 20% | melting point: 225 to 226 °C

O=C(NN=Cc1ccccc1)C1CC(=O)N(c2ccc(Nc3ccccc3)cc2)C1 (stereo not shown) [Compound 2, N′-benzylidene-5-oxo-1-(4-(phenylamino)phenyl)pyrrolidine-3-carbohydrazide]
effect on cell viability compared among the cell lines [4]: strongest effect on melanoma cells | effect on fibroblasts compared to cancer cell lines [2]: affected fibroblasts more than the tested cancer cell lines | reducing power activity compared to the control antioxidant [3]: higher than those of known antioxidants used as the controls | melting point: 122 to 123 °C

O=C(NN=Cc1ccc[nH]1)C1CC(=O)N(c2ccc(Nc3ccccc3)cc2)C1 (stereo not shown) [Compound 11, N′-((1H-pyrrol-2-yl)methylene)-5-oxo-1-(4-(phenylamino)phenyl)pyrrolidine-3-carbohydrazide]
effect on cell viability compared among the cell lines [1]: most active against the prostate carcinoma cell line | inhibition of cancer cell viability [5]: less than 20% | melting point: 234 to 235 °C

CN(C)c1ccc(C=NNC(=O)C2CC(=O)N(c3ccc(Nc4ccccc4)cc3)C2)cc1 (stereo not shown) [Compound 7, N′-(4-(dimethylamino)benzylidene)-5-oxo-1-(4-(phenylamino)phenyl)pyrrolidine-3-carbohydrazide]
effect on fibroblasts compared to cancer cell lines [2]: affected fibroblasts more than the tested cancer cell lines | reducing power activity compared to the control antioxidant [3]: higher than those of known antioxidants used as the controls | melting point: 218 to 219 °C

CC(=NNC(=O)C1CC(=O)N(c2ccc(Nc3ccccc3)cc2)C1)c1cccc(N)c1 (stereo not shown) [Compound 17, N′-(1-(3-aminophenyl)ethylidene)-5-oxo-1-(4-(phenylamino)phenyl)pyrrolidine-3-carbohydrazide]
effect on cell viability compared among the cell lines [1]: most active against the prostate carcinoma cell line | effect on fibroblasts compared to cancer cell lines [2]: affected fibroblasts more than the tested cancer cell lines | FRAP reducing power (Fe^2+) [3]: 129.28 µmol/L | reducing power activity compared to the control antioxidant [3]: higher than those of known antioxidants used as the controls | melting point: 239 to 240 °C
